Results reported in ChEMBL document CHEMBL3739316, “Novel orally active inhibitors of β-1,3-glucan synthesis derived from enfumafungin” (Bioorg Med Chem Lett, 2015).
Values after ≈ are worked out from the molar mass of the structure shown.

Tests used:
Beta-1,3-glucan synthase = target: T1, Beta-1,3-glucan synthase (Candida albicans, UniProt O13383); test: Displacement of UDP-[3H]glucose from beta-1,3-glucan synthase in Candida albicans MY1055 microsomal membranes incubated for 2 hrs
T1 sequence (O13383 whole entry): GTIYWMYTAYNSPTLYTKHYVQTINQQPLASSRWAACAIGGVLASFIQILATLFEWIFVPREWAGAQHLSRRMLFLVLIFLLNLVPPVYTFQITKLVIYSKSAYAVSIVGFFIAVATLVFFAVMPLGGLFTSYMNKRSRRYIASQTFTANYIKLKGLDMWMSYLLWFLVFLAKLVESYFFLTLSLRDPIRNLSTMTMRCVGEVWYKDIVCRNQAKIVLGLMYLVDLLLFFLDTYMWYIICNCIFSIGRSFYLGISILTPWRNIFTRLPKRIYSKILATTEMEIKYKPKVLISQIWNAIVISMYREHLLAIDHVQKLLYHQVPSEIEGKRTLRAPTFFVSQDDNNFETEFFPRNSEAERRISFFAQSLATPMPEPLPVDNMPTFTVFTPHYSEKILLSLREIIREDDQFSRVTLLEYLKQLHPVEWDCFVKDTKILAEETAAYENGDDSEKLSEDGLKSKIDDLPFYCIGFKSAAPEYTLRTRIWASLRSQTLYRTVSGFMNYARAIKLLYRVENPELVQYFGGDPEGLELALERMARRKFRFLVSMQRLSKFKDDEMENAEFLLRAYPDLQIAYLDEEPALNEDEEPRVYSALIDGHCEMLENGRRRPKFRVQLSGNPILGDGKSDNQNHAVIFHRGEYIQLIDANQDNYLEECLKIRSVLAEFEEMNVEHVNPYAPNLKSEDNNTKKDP

Candida albicans [1] = test: Antifungal activity against Candida albicans MY1055 after 24 hrs by liquid microdilution assay; assay type: functional; conditions: MY1055, 24 h
Aspergillus fumigatus = test: Antifungal activity against Aspergillus fumigatus MF5668 after 24 hrs by liquid microdilution assay; assay type: functional; conditions: MF5668, 24 h, read-out: MEC
Candida albicans [2] = test: Antifungal activity against Candida albicans MY1055 after 24 hrs by liquid microdilution assay in presence of human serum; assay type: functional; conditions: MY1055, 24 h

Structure (SMILES) | IC50 (Beta-1,3-glucan synthase) | MIC (Candida albicans [1]) | MIC (Candida albicans [2]) | minimal effective concentration (Aspergillus fumigatus)
CC(C)[C@@H](C)[C@@]1(C)CC[C@]2(C)[C@H]3CC[C@H]4C5(C)COC[C@@]4(C[C@@H](n4nnnc4N)[C@@H]5OC[C@](C)(N)C(C)C)C3=CC[C@@]2(C)[C@@H]1C(=O)O | 56.5 nM | 4 µg/mL (≈ 6.11 µM) | > 32 µg/mL | 0.25 µg/mL
CC(C)[C@@H](C)[C@@]1(C)CC[C@]2(C)[C@H]3CC[C@H]4C5(C)COC[C@@]4(C[C@@H](n4cccn4)[C@@H]5O[C@@H]4O[C@H](CO)[C@@H](O)[C@H](O)[C@H]4O)C3=CC[C@@]2(C)[C@@H]1C(=O)O | 813 nM | 2 µg/mL (≈ 2.85 µM) | > 32 µg/mL | 0.06 µg/mL
CC(C)[C@@H](C)[C@@]1(C)CC[C@]2(C)[C@H]3CC[C@H]4C5(C)COC[C@@]4(C[C@@H](n4cnnc4)[C@@H]5O[C@@H]4O[C@H](CO)[C@@H](O)[C@H](O)[C@H]4O)C3=CC[C@@]2(C)[C@@H]1C(=O)O | – | 4 µg/mL (≈ 5.7 µM) | > 32 µg/mL | 1 µg/mL
CC(C)[C@@H](C)[C@@]1(C)CC[C@]2(C)[C@H]3CC[C@H]4C5(C)COC[C@@]4(C[C@@H](Oc4ccccc4)[C@@H]5O[C@@H]4O[C@H](CO)[C@@H](O)[C@H](O)[C@H]4O)C3=CC[C@@]2(C)[C@@H]1C(=O)O | 578 nM | 2 µg/mL (≈ 2.75 µM) | 32 µg/mL | 0.125 µg/mL
CC(C)[C@@H](C)[C@@]1(C)CC[C@]2(C)[C@H]3CC[C@H]4C5(C)COC[C@@]4(C[C@@H](n4ccnn4)[C@@H]5O[C@@H]4O[C@H](CO)[C@@H](O)[C@H](O)[C@H]4O)C3=CC[C@@]2(C)[C@@H]1C(=O)O | > 14200 nM | > 32 µg/mL | > 32 µg/mL | 2 µg/mL
Cc1nnn([C@@H]2C[C@@]34COCC(C)([C@H]2OC[C@](C)(N)C(C)C)[C@@H]3CC[C@H]2C4=CC[C@@]3(C)[C@H](C(=O)O)[C@@](C)([C@H](C)C(C)C)CC[C@]23C)n1 | 24.5 nM | 1 µg/mL (≈ 1.53 µM) | > 32 µg/mL | 0.5 µg/mL

More lines, main results first:

IC50 (Beta-1,3-glucan synthase) | MIC (Candida albicans [1]) | MIC (Candida albicans [2]) | Structure (SMILES) | minimal effective concentration (Aspergillus fumigatus)
86.1 nM | 0.25 µg/mL (≈ 0.359 µM) | 16 µg/mL | CC(=O)Nc1nnn([C@@H]2C[C@@]34COCC(C)([C@H]2OC[C@](C)(N)C(C)C)[C@@H]3CC[C@H]2C4=CC[C@@]3(C)[C@H](C(=O)O)[C@@](C)([C@H](C)C(C)C)CC[C@]23C)n1 | < 0.03 µg/mL
1410 nM | > 32 µg/mL | > 32 µg/mL | CC(C)[C@@H](C)[C@@]1(C)CC[C@]2(C)[C@H]3CC[C@H]4C5(C)COC[C@@]4(C[C@@H](n4ccc6ccccc64)[C@@H]5O[C@@H]4O[C@H](CO)[C@@H](O)[C@H](O)[C@H]4O)C3=CC[C@@]2(C)[C@@H]1C(=O)O | 4 µg/mL
634 nM | 2 µg/mL (≈ 2.7 µM) | > 32 µg/mL | COc1ccc([C@@H]2C[C@@]34COCC(C)([C@H]2O[C@@H]2O[C@H](CO)[C@@H](O)[C@H](O)[C@H]2O)[C@@H]3CC[C@H]2C4=CC[C@@]3(C)[C@H](C(=O)O)[C@@](C)([C@H](C)C(C)C)CC[C@]23C)cc1 | 0.25 µg/mL
1410 nM | > 32 µg/mL | > 32 µg/mL | CC(C)[C@@H](C)[C@@]1(C)CC[C@]2(C)[C@H]3CC[C@H]4C5(C)COC[C@@]4(C[C@@H](n4nccn4)[C@@H]5O[C@@H]4O[C@H](CO)[C@@H](O)[C@H](O)[C@H]4O)C3=CC[C@@]2(C)[C@@H]1C(=O)O | 0.5 µg/mL
342 nM | 2 µg/mL (≈ 2.85 µM) | 32 µg/mL | CC(C)[C@@H](C)[C@@]1(C)CC[C@]2(C)[C@H]3CC[C@H]4C5(C)COC[C@@]4(C[C@@H](n4cncn4)[C@@H]5O[C@@H]4O[C@H](CO)[C@@H](O)[C@H](O)[C@H]4O)C3=CC[C@@]2(C)[C@@H]1C(=O)O | 0.125 µg/mL
